Experimental data as given in patent US5593835A, “Methods and kits for RNA binding compounds” (President and Fellows of Harvard College, priority 1995, dated 1997).

Legend:
[1] = target: W13 RNA having SEQ ID NO:1; assay: Fluorescence (PYT quenching) titration and competition binding to W13 RNA; settings: for competition with PYT binding (in words): fluorescence competition assay
Method: To study the binding behavior of clone W13, a fluorescently labelled pyrene-conjugated tobramycin derivative "PYT" was prepared.
For competitive binding studies, different concentrations of antibiotic (glucosamine (0-10 mM), erythromycin (0-6 mM), gentamicin C (0-700 μM), or neomycin B (0-650 μM)), were mixed with constant concentrations of RNA (300 nM W13) and PYT (150 nM), in Binding buffer (140 mM NaCl, 5 mM KCl, 1 mM MgCl2, 1 mM CaCl2, 20 mM HEPES, pH 7.4), 750 μl total volume, for 1-5 min. at 20° C. in a semimicro-cell cuvette. The fluorescence was measured on a Perkin-Elmer Model 512 double beam fluorescence spectrophotometer. The excitation wavelength used was 341 nm. The intensities of fluorescence emission at 380 nm were used to calculate dissociation constants. Generally 8 to 10 points were used for calculation.
(§1) Steady state fluorescence measurements were performed on a double beam fluorescence spectrometer (Perkin-Elmer Model 512, Norwalk, Conn.). The excitation wavelength was 341 nm. All measurements were done at 20° C. in 140 mM NaCl, 5 mM KCl, 1 mM CaCl2, 1 mM MgCl2, and 20 mM HEPES, pH 7.4. The KD of the PYT and the RNA aptamer was calculated by the curve fitting of the fluorescence intensity as a function of RNA concentration, using the following equation
(assuming a 1:1 complex): I=Io +0.5Δε ([PYT]o
-(([PYT]o +[RNA]o KI)^2 -4[PYT]o [RNA]o)^0.5)
(§2) Competition binding measurements of antibiotics with RNA and PYT were performed at constant concentrations of PYT and RNA by monitoring fluorescence intensity changes as a function of changing concentrations of the antibiotics (a standard fluorescence curve). The KD s for the antibiotics were calculated by the curve fitting of the fluorescence intensity of PYT as a function of antibiotic concentration, using the following equation:
I=Io +Δε[PYT.circle-solid.RNA]
[PYT.circle-solid.RNA]=0.5(([PYT]o +[RNA]o)([RNA]o
+KD)+KI ([T]o +[RNA]o +KD)-((([PYT]o
+[RNA]o)([RNA]o +KD)+KI ([T]o +[RNA]o
+KD))^2 -4([RNA]o +KD) [PYT]o [RNA]o
([RNA]o +KD))^0.5)([RNA]o +KD) (equation 2)
KD and KI are the dissociation constants for the antibiotic and PYT respectively.
[T]o is the total concentration of antibiotic added. Measurements were taken at least twice for each measured KD.

[2] = target: random selected RNA pool (low stringency tobramycin column); assay: Fluorescence assay, average binding of the random selected RNA pool; settings: overall selected pool mixture
Method: To determine whether the W13 RNA clone is representative of the average binding capacity of the random selected RNA pool, the average KD values for the random selected pool were measured. […] Therefore, the W13 RNA is representative of the average binding capacity of the random selected pool.
as §1
as §2, with “equation: […]” for “equation:”

J6 RNA (SEQ ID NO:5) = assay: Fluorescence binding measurements, J6 RNA; settings: K1 - high affinity; fluorescent ligand per footnote a/b; read-out: Dissociation Constants K1(PYT)
Method: (§3) The binding of tobramycin to two cloned RNAs X1 (SEQ ID NO:2) and J6 (SEQ ID NO:5), representative of both classes of consensus sequences, was measured using the fluorescence techniques described in the exemplification.
as §1
as §2, with “equation: […]” for “equation:”

[3] = target: J6a1 RNA (SEQ ID NO: 5), synthetically derived from the predicted structures; assay: Fluorescence binding measurements, J6a1 RNA; settings: K1 - high affinity; fluorescent ligand per footnote a/b; read-out: Dissociation Constants K1(PYT)
Method: as §3
(§4) *synthetically derived from the predicted structures
as §1
as §2, with “equation: […]” for “equation:”

[4] = target: clone W13 RNA (SEQ ID NO:1), tobramycin-selected RNA aptamer; assay: Equilibrium dialysis binding to clone W13 RNA; settings: equilibrium dialysis, direct; read-out: KD
Method: One of these RNAs, clone W13 (SEQ ID NO:1) was chosen for quantitative studies to determine the specificity of its binding to RNA. […] The dissociation constant for tobramycin was determined to be 3 μM by competition studies with ^3 H-acetyl tobramycin. These values are close to those measured for tobramycin and ^3 H-acetyl tobramycin binding to ribosomal targets (LeGoffic et al. (1979) Eur. J. Biochem. 102: 73-81).
Equilibrium dialysis measurements were performed according to the procedure of Lorsch et al. (Biochem. (1994) 33: 973-982).

[5] = system: RNA pool transcribed from DNA after the sixth selection, bound to tobramycin affinity column; assay: Elution of bound RNA from tobramycin affinity column; format: binding; settings: 10 column volumes of selection buffer containing 50 mM D-glucosamine
Description: Elution patterns of the RNA from the columns are shown in FIG. 4 for the second and sixth selections. Over 6 cycles of selection, the percentages of RNA specifically eluted with tobramycin were <0.1%, 3.0%, 2.9%, 26%, 55%, and 82%. […] The RNA pool transcribed from DNA after the sixth selection could not be eluted from the affinity column, even after 100 column volumes of selection buffer.
An N-hydroxysuccinimide Affi-Gel affinity column (Bio-Rad, Hercules, Calif.) was derivatized with either 20 μmoles or 0.075 μmoles tobramycin per ml of gel to generate the affinity columns. Excess N-hydroxysuccinimide linkages were blocked by adding 1M ethanolamine. The resulting column served as the support for the RNA selections. The tobramycin concentration on column was estimated as about 15 mM. Selections were performed in 1 ml column volumes in a buffer (selection buffer) containing 140 mM NaCl, 5 mM KCl, 1 mM CaCl2, 1 mM MgCl2, and 20 mM Tris acetate, pH 7.4 (Bock et al. (1992) Nature 355: 564-566). A 1 ml Affi-Gel 10 pre-column treated with ethanolamine was used in all selections.
The original double stranded DNA pool was constructed by large scale PCR amplification of the synthesized 109mer random DNA pool (Oligos, Etc., Inc., Wilsonville, Oreg.) containing 60 random nucleotides. […]

RRE region of HIV RNA = assay: Fluorescence binding and competitive binding to RRE RNA; settings: competition, 100 nM RNA, 15 nM fluorescent tobramycin, 20° C., pH 7.4; read-out: Dissociation Constant (KD) RRE RNA
Method: In order to quantitatively determine whether fluorescently labelled tobramycin and other antibiotics bind directly to the RRE region and/or to other regions of the HIV RNA, and with what affinity, the RRE and TAR regions of HIV RNA were prepared and used in the method of the invention as target RNAs.
For binding studies, different concentrations of RRE RNA (from 0 to 300 nm) were mixed with a constant concentration (15 nM) PYT in Binding buffer (140 mM NaCl, 1 mM MgCl2, 20 mM HEPES, pH 7.4), 2 ml total volume, for 1-5 min. at 20° C. in a semimicro-cell cuvette. The fluorescence was measured on a Perkin-Elmer Model 512 double beam fluorescence spectrophotometer. The excitation wavelength used was 330 nm. The intensities of fluorescence emission at 390 nm were used to calculate dissociation constants. Generally 8 to 12 points were used for calculation.
In other competitive binding studies, TAR or RRE RNA was added at a constant concentration of 100 nM±5% and PYT at 15 nM. Different concentrations of competitive antibiotic (tobramycin (o-60 μM), gentamicin C (0-100 μM), neomycin B (0-4 μM), or lividomycin A (0-100 μM) or Rev protein (0-6 μM) were mixed with constant concentrations of RNA (100 nM TAR or RRE) and C1PYT (15 nM), in Binding buffer (140 mM NaCl, 5 mM KCl, 1 mM MgCl2, 20 mM HEPES, pH 7.4), 2 ml total volume, for 1-5 min. at 20° C. in a semimicrocell cuvette. The fluorescence was measured on a Perkin-Elmer Model 512 double beam fluorescence spectrophotometer. The excitation wavelength used was 330 nm. The intensities of fluorescence emission at 390 nm were used to calculate dissociation constants. Generally 8 to 12 points were used for calculation.
Wild type and mutant RRE RNAs were transcribed in vitro by T7 RNA polymerase using synthetic oligonucleotide templates, as described by Milligan et al. (Meth. Enzymol. (1989) 180: 51-62).
as §2, with “equation: […]” for “equation:”

[6] = target: X1s1 RNA (SEQ ID NO: 3), synthetically derived from the predicted structures; assay: Fluorescence binding measurements, X1s1 RNA; settings: K1 - high affinity; footnote b: ligand is 6'N4-pyreneacetyl tobramycin; read-out: Dissociation Constants K1(PYT)
Method: as §3, §4, §1
as §2, with “equation: […]” for “equation:”

[7] = fluorescence, competition with PYT (150 nM PYT, 300 nM W13), 20° C., pH 7.4, N.B. = no measurable binding

Compound | Kd [1, 7] | competition with PYT binding (in words) [1] | Kd (RRE region of HIV RNA) | other results
N[C@@H]1[C@@H](O)[C@@H](O[C@@H]2[C@@H](O)[C@H](O[C@H]3O[C@H](CNC(=O)CCCc4ccc5ccc6cccc7ccc4c5c67)[C@@H](O)C[C@H]3N)[C@@H](N)C[C@H]2N)O[C@H](CO)[C@H]1O [PYT, 6'-N-4-pyrenebutyryl tobramycin] | 20 ± 7 nM |  |  | Kd ([1]; fluorescence intensity of PYT as function of RNA concentration, 1:1 complex, 20° C., pH 7.4): 20 ± 4 nM; times more tightly bound than tobramycin ([1]; ratio of KD values, PYT vs tobramycin): more than 200 times; Kd [2]: 52 ± 8 nM; Kd (J6 RNA (SEQ ID NO:5)): 5.38 ± 0.46 nM; Kd [3]: 286 ± 10 nM
CC(=O)NCC1OC(OC2C(N)CC(N)C(OC3OC(CO)C(O)C(N)C3O)C2O)C(N)CC1O (stereo not shown) [^3 H-acetyl tobramycin, 6-N-^3 H-Acetyl Tobramycin] |  |  |  | Kd [4]: 1300 nM
N[C@H]1C(O)O[C@H](CO)[C@@H](O)[C@@H]1O (stereo partly drawn) [D-glucosamine] |  | did not measurably compete with PYT binding |  | KD (μM) [1, 7]: N.B.; elution of bound RNA from tobramycin affinity column (in words) [5]: did not cause any bound RNA to be eluted
gentamicin | 4700 ± 4000 nM | potent inhibitors of binding | 10800 ± 680 nM | 
CC[C@H]1OC(=O)[C@H](C)[C@@H](O[C@H]2C[C@@](C)(OC)[C@@H](O)[C@H](C)O2)[C@H](C)[C@@H](O[C@@H]2O[C@H](C)C[C@H](N(C)C)[C@H]2O)[C@](C)(O)C[C@@H](C)C(=O)[C@H](C)[C@@H](O)[C@]1(C)O [erythromycin] | 505000 ± 25000 nM | only weakly inhibited PYT binding |  | 
NC[C@@H]1O[C@H](O[C@H]2[C@@H](O)[C@H](O[C@@H]3[C@@H](O)[C@H](N)C[C@H](N)[C@H]3O[C@H]3O[C@H](CN)[C@@H](O)[C@H](O)[C@H]3N)O[C@@H]2CO)[C@H](N)[C@@H](O)[C@@H]1O [neomycin B] |  | potent inhibitors of binding | 419 ± 3.8 nM | 
NC[C@@H]1O[C@H](O[C@H]2[C@@H](O)[C@H](O[C@@H]3[C@@H](O)[C@H](N)C[C@H](N)[C@H]3O[C@H]3O[C@H](CO)[C@@H](O)C[C@H]3N)O[C@@H]2CO)[C@H](N)[C@@H](O)[C@@H]1O[C@H]1O[C@H](CO)[C@@H](O)[C@H](O)[C@@H]1O [lividomycin-A, lividomycin A] |  |  | 11900 ± 330 nM | 
N[C@@H]1[C@@H](O)[C@@H](O[C@@H]2[C@@H](O)[C@H](O[C@H]3O[C@H](CNC(=O)Cc4ccc5ccc6cccc7ccc4c5c67)[C@@H](O)C[C@H]3N)[C@@H](N)C[C@H]2N)O[C@H](CO)[C@H]1O [6'N4-pyreneacetyl tobramycin, 6'-N-4-pyreneacetyl tobramycin] |  |  |  | Kd [6]: 65.1 ± 7.4 nM
